From patent US9156801B2, “2-substituted oleanolic acid derivative, method preparing for same, and application thereof” (HANGZHOU BENSHENG PHARMACEUTICAL CO., LTD., priority 2011, dated 2015)
≈ marks a conversion by molar mass, not a printed value.

Key:
H9 cell line = assay: leukemia cell growth inhibition, MTT; assay type: cell-based; details: Homo sapiens; for IC50: H9, 72 h; for inhibition at 16 µg/mL: H9, 16 μg/mL compound, 72 h, read-out: IR (cell proliferation inhibition rate)
Method in brief: (§1)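 6000 cells per well in RPMI 1640 with 10% FBS were exposed to graded concentrations of the oleanolic acid derivatives for 72 hours at 37° C under 5% CO2. Viable cells were quantified by MTT, with untreated cells defining 0% inhibition.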

Jurkat cell line = assay: leukemia cell growth inhibition, MTT; assay type: cell-based; details: Homo sapiens, 72 h; for inhibition at 16 µg/mL: 16 μg/mL compound, read-out: IR (cell proliferation inhibition rate)
Method in brief: as §1

K562/adr cell line = assay: leukemia cell growth inhibition, MTT; assay type: cell-based; details: Homo sapiens, 72 h; for IC50: K562/Adr; for inhibition at 16 µg/mL: K562/adr, 16 μg/mL compound, read-out: IR (cell proliferation inhibition rate)
Method in brief: as §1

Kasumi-1 cell line = assay: leukemia cell growth inhibition, MTT; assay type: cell-based; details: Homo sapiens; for inhibition at 16 µg/mL: Kasumi-1, 16 μg/mL compound, 72 h, read-out: IR (cell proliferation inhibition rate); for IC50: Kasumi-1, 72 h
Method in brief: as §1

NB4 cell line = assay: leukemia cell growth inhibition, MTT; assay type: cell-based; details: Homo sapiens, NB-4; for inhibition at 16 µg/mL: NB4, 16 μg/mL compound, 72 h, read-out: IR (cell proliferation inhibition rate); for IC50: NB4, 72 h
Method in brief: as §1

RPMI8226 cell line = assay: multiple myeloma cell growth inhibition, MTT; assay type: cell-based; details: Homo sapiens, RPMI-8226; for inhibition at 16 µg/mL: RPMI8226, 16 μg/mL compound, 72 h, read-out: IR (cell proliferation inhibition rate); for IC50: RPMI8226, 72 h
Method in brief: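 RPMI8226 cells (6000 per well) in RPMI 1640 with 10% FBS were exposed to several concentrations of compound for 72 h at 37° C and 5% CO2. Viable cells were quantified by MTT, with inhibition set to 0% in untreated controls.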

Hep G2 cell line = assay: solid tumor cell growth inhibition, MTT; assay type: cell-based, human; details: for inhibition at 16 µg/mL / IC50: Homo sapiens; for inhibition at 16 µg/mL: HepG2, 72 h, Hep G2, 16 μg/mL compound, 72 h, read-out: IR (cell proliferation inhibition rate); for IC50: HepG2, Hep G2, 72 h
Method in brief: (§2)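 Cells (4000/well) in DMEM high glucose with 10% FBS were pre-cultured 24 h at 37° C, 5% CO2, then exposed to graded compound concentrations for 72 h. Viable cells were measured by MTT, with untreated controls set at 0% inhibition.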

A549 cell line = assay: solid tumor cell growth inhibition, MTT; assay type: cell-based; details: Homo sapiens; for IC50: A549, 72 h; for inhibition at 16 µg/mL: A549, 16 μg/mL compound, 72 h, read-out: IR (cell proliferation inhibition rate)
Method in brief: as §2

Becap37 cell line = assay: solid tumor cell growth inhibition, MTT; assay type: cell-based; details: Homo sapiens; for inhibition at 16 µg/mL: Becap37, 16 μg/mL compound, 72 h, read-out: IR (cell proliferation inhibition rate); for IC50: Becap37, 72 h
Method in brief: as §2

CNE cell line = assay: solid tumor cell growth inhibition, MTT; assay type: cell-based; details: Homo sapiens, 72 h; for inhibition at 16 µg/mL: 16 μg/mL compound, read-out: IR (cell proliferation inhibition rate)
Method in brief: as §2

CaES-17 cell line = assay: solid tumor cell growth inhibition, MTT; assay type: cell-based; details: Homo sapiens, CaEs17; for inhibition at 16 µg/mL: CaES-17, 16 μg/mL compound, 72 h, read-out: IR (cell proliferation inhibition rate); for IC50: CaES-17, 72 h
Method in brief: as §2

Hela cell line = assay: solid tumor cell growth inhibition, MTT; assay type: cell-based; details: Homo sapiens, 72 h; for IC50: HeLa; for inhibition at 16 µg/mL: Hela, 16 μg/mL compound, read-out: IR (cell proliferation inhibition rate)
Method in brief: as §2

Hep-2 cell line = assay: solid tumor cell growth inhibition, MTT; assay type: cell-based; details: Homo sapiens; for IC50: HEp-2, 72 h; for inhibition at 16 µg/mL: Hep-2, 16 μg/mL compound, 72 h, read-out: IR (cell proliferation inhibition rate)
Method in brief: as §2

MG-63 cell line = assay: solid tumor cell growth inhibition, MTT; assay type: cell-based; details: Homo sapiens; for IC50: MG-63, 72 h; for inhibition at 16 µg/mL: MG-63, 16 μg/mL compound, 72 h, read-out: IR (cell proliferation inhibition rate)
Method in brief: as §2

MGC 803 cell line = assay: solid tumor cell growth inhibition, MTT; assay type: cell-based; details: Homo sapiens; for inhibition at 16 µg/mL: MGC 803, 16 μg/mL compound, 72 h, read-out: IR (cell proliferation inhibition rate); for IC50: MGC 803, 72 h
Method in brief: as §2

PANC-1 cell line = assay: solid tumor cell growth inhibition, MTT; assay type: cell-based; details: Homo sapiens; for IC50: PANC-1, 72 h; for inhibition at 16 µg/mL: PANC-1, 16 μg/mL compound, 72 h, read-out: IR (cell proliferation inhibition rate)
Method in brief: as §2

PC-3 cell line = assay: solid tumor cell growth inhibition, MTT; assay type: cell-based; details: Homo sapiens; for IC50: PC-3, 72 h; for inhibition at 16 µg/mL: PC-3, 16 μg/mL compound, 72 h, read-out: IR (cell proliferation inhibition rate)
Method in brief: as §2

RKO cell line = assay: solid tumor cell growth inhibition, MTT; assay type: cell-based; details: Homo sapiens, 72 h; for inhibition at 16 µg/mL: 16 μg/mL compound, read-out: IR (cell proliferation inhibition rate)
Method in brief: as §2

SK-OV-3 cell line = assay: solid tumor cell growth inhibition, MTT; assay type: cell-based; details: Homo sapiens; for IC50: SK-OV-3, 72 h; for inhibition at 16 µg/mL: SK-OV-3, 16 μg/mL compound, 72 h, read-out: IR (cell proliferation inhibition rate)
Method in brief: as §2

U87 MG cell line = assay: solid tumor cell growth inhibition, MTT; assay type: cell-based; details: Homo sapiens, U-87 MG, 72 h; for inhibition at 16 µg/mL: 16 μg/mL compound, read-out: IR (cell proliferation inhibition rate)
Method in brief: as §2

Q: Which results are given for CN1CCN(CCCNC(=O)C2C[C@]3(C)[C@H]4CC=C5[C@@H]6CC(C)(C)CC[C@]6(C(=O)O)CC[C@@]5(C)[C@]4(C)CC[C@H]3C(C)(C)C2=O)CC1 (stereo partly drawn) [BS-OA-110]?
A: IC50 (H9 cell line): > 16 µg/mL; inhibition at 16 µg/mL (H9 cell line): 37.9%; inhibition at 16 µg/mL (Jurkat cell line): 45.5%; IC50 (Jurkat cell line): 18.4 µg/mL (≈ 28.8 µM); IC50 (K562/adr cell line): 8.79 µg/mL (≈ 13.8 µM); inhibition at 16 µg/mL (K562/adr cell line): 81.9%; inhibition at 16 µg/mL (Kasumi-1 cell line): 41.7%; IC50 (Kasumi-1 cell line): > 16 µg/mL; inhibition at 16 µg/mL (NB4 cell line): 78.8%; IC50 (NB4 cell line): 8.95 µg/mL (≈ 14 µM); inhibition at 16 µg/mL (RPMI8226 cell line): 96.7%; IC50 (RPMI8226 cell line): 8.58 µg/mL (≈ 13.4 µM); inhibition at 16 µg/mL (Hep G2 cell line): 29.5%; IC50 (Hep G2 cell line): > 16 µg/mL; IC50 (A549 cell line): > 16 µg/mL; inhibition at 16 µg/mL (A549 cell line): 4%; inhibition at 16 µg/mL (Becap37 cell line): 22.2%; IC50 (Becap37 cell line): > 16 µg/mL; inhibition at 16 µg/mL (CNE cell line): 30.1%; IC50 (CNE cell line): > 16 µg/mL; inhibition at 16 µg/mL (CaES-17 cell line): -1%; IC50 (CaES-17 cell line): > 16 µg/mL; IC50 (Hela cell line): > 16 µg/mL; inhibition at 16 µg/mL (Hela cell line): 26.1%; IC50 (Hep-2 cell line): > 16 µg/mL; inhibition at 16 µg/mL (Hep-2 cell line): -6.3%; IC50 (MG-63 cell line): > 16 µg/mL; inhibition at 16 µg/mL (MG-63 cell line): 29.5%; inhibition at 16 µg/mL (MGC 803 cell line): 2.9%; IC50 (MGC 803 cell line): > 16 µg/mL; IC50 (PANC-1 cell line): > 16 µg/mL; inhibition at 16 µg/mL (PANC-1 cell line): 13.1%; IC50 (PC-3 cell line): > 16 µg/mL; inhibition at 16 µg/mL (PC-3 cell line): -11.4%; inhibition at 16 µg/mL (RKO cell line): -19.1%; IC50 (RKO cell line): > 16 µg/mL; IC50 (SK-OV-3 cell line): > 16 µg/mL; inhibition at 16 µg/mL (SK-OV-3 cell line): -20.1%; inhibition at 16 µg/mL (U87 MG cell line): -12.6%; IC50 (U87 MG cell line): > 16 µg/mL

Q: Which results are given for CC1(C)CC[C@]2(C(=O)O)CC[C@]3(C)C(=CC[C@@H]4[C@@]5(C)CC[C@H](O)C(C)(C)[C@@H]5CC[C@]43C)[C@@H]2C1 [OA, Oleanolic acid]?
A: IC50 (H9 cell line): > 16 µg/mL; inhibition at 16 µg/mL (H9 cell line): 22.8%; inhibition at 16 µg/mL (Jurkat cell line): 9.4%; IC50 (Jurkat cell line): > 16 µg/mL; IC50 (K562/adr cell line): > 16 µg/mL; inhibition at 16 µg/mL (K562/adr cell line): 26.5%; inhibition at 16 µg/mL (Kasumi-1 cell line): 17.2%; IC50 (Kasumi-1 cell line): > 16 µg/mL; inhibition at 16 µg/mL (NB4 cell line): 17.2%; IC50 (NB4 cell line): > 16 µg/mL; inhibition at 16 µg/mL (RPMI8226 cell line): 2.2%; IC50 (RPMI8226 cell line): > 16 µg/mL; proliferation inhibition effect (in words) (Hep G2 cell line; Hep G2): does not exhibit obvious proliferation inhibition effect; inhibition at 16 µg/mL (Hep G2 cell line): -18.5%; IC50 (Hep G2 cell line): > 16 µg/mL; IC50 (A549 cell line): > 16 µg/mL; inhibition at 16 µg/mL (A549 cell line): 5%; inhibition at 16 µg/mL (Becap37 cell line): 23.4%; IC50 (Becap37 cell line): > 16 µg/mL; inhibition at 16 µg/mL (CNE cell line): 33.9%; IC50 (CNE cell line): > 16 µg/mL; inhibition at 16 µg/mL (CaES-17 cell line): 27.4%; IC50 (CaES-17 cell line): > 16 µg/mL; IC50 (Hela cell line): > 16 µg/mL; inhibition at 16 µg/mL (Hela cell line): 22.9%; IC50 (Hep-2 cell line): > 16 µg/mL; inhibition at 16 µg/mL (Hep-2 cell line): 9.8%; IC50 (MG-63 cell line): > 16 µg/mL; inhibition at 16 µg/mL (MG-63 cell line): 29.2%; inhibition at 16 µg/mL (MGC 803 cell line): 19.7%; IC50 (MGC 803 cell line): > 16 µg/mL; IC50 (PANC-1 cell line): > 16 µg/mL; inhibition at 16 µg/mL (PANC-1 cell line): 8.5%; IC50 (PC-3 cell line): > 16 µg/mL; inhibition at 16 µg/mL (PC-3 cell line): 29.1%; inhibition at 16 µg/mL (RKO cell line): 14.3%; IC50 (RKO cell line): > 16 µg/mL; IC50 (SK-OV-3 cell line): > 16 µg/mL; inhibition at 16 µg/mL (SK-OV-3 cell line): 8.3%; inhibition at 16 µg/mL (U87 MG cell line): 21.8%; IC50 (U87 MG cell line): > 16 µg/mL
